# How the values were obtained:
# RAR-γ-VP-16 = experiment: Example 12: assay for retinoid negative hormones, CV-1 cells; type: cell-based; conditions: 10^−9 to 10^−6 M, 18 hours, no agonist
# RXRβ = experiment: Holoreceptor transactivation assay; type: cell-based; conditions: relative to all trans retinoic acid
# Source text: (§1) A holoreceptor transactivation assay and a ligand binding assay which measure the antagonist/agonist like activity of the compounds of the invention, or their ability to bind to the several retinoid receptor subtypes, respectively, are described in published PCT Application No. WO93/11755 (particularly on pages 30-33 and 37-41) published on Jun. 24, 1993, the specification of which is also incorporated herein by reference. A description of the holoreceptor transactivation assay is also provided below.
# (§2) CV1 cells (5,000 cells/well) were transfected with an RAR reporter plasmid MTV-TREp-LUC (50 ng) along with one of the RAR expression vectors (10 ng) in an automated 96-well format by the calcium phosphate procedure of Heyman et al. Cell 68: 397-406. For RXR-α and RXR-γ transactivation assays, an RXR-responsive reporter plasmid CRBPII-tk-LUC (50 ng) along with the appropriate RXR expression vectors (10 ng) was used substantially as described by Heyman et al. above, and Allegretto et al. J. Biol. Chem. 268: 26625-26633. For RXR-β transactivation assays, an RXR-responsive reporter plasmid CPRE-tk-LUC ([…]) along with RXR-β expression vector ([…]) was used as described in above. These reporters contain DRI elements from human CRBPII and certain DRI elements from promotor, respectively (see Mangelsdorf et al. The Retinoids: Biology Chemistry and Medicine, pp. 319-349, Raven Press Ltd., New York and Heyman et al., cited above). A β-galactosidase (50 ng) expression vector was used as an internal control in the transfections to normalize for variations in transfection efficiency. The cells were transfected in triplicate for 6 hours, followed by incubation with retinoids for 36 hours, and the extracts were assayed for luciferase and […] activities. The detailed experimental procedure for holoreceptor transactivations has been described in Heyman et al. above, and Allegretto et al. cited above. The results obtained in this assay are expressed in EC50 numbers, as they are also in the chimeric receptor transactivation assay. The Heyman et al. Cell 68: 397-406, Allegretto et al. J. Biol. Chem. 268: 26625-26633, and Mangelsdorf et al. The Retinoids: Biology, Chemistry, and Medicine, pp. 319-349, Raven Press Ltd., New York, are expressly incorporated herein by reference. The results of ligand binding assay are expressed in Kd numbers. (See Cheng et al. Biochemical Pharmacology 22: 3099-3108, expressly incorporated herein by reference.)
# RXRα = biological target: T1, RXRα (Homo sapiens, UniProt P19793); experiment: Holoreceptor transactivation assay; type: cell-based; conditions: relative to all trans retinoic acid; read-out: Transactivation Assay Efficacy (% of RA activity) RXRα
# T1 construct: expressed in transfected cells; host or cells: CV1 cells
# T1 sequence (P19793 1-462): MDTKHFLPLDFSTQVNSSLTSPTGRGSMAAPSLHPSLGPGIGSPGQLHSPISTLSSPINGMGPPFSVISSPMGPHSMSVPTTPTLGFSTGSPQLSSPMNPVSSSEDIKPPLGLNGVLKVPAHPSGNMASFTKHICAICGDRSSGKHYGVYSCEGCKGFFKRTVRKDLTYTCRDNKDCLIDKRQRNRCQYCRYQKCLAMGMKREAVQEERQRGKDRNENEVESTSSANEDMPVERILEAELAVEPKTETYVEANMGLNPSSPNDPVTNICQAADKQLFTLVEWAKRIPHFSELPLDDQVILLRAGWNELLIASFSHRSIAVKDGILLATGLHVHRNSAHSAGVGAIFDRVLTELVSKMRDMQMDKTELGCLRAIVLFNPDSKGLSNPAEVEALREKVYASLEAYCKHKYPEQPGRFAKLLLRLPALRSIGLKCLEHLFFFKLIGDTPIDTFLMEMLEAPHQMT
# Source text: as §1, §2
# RXRγ = biological target: T2, RXRγ (Mus musculus, UniProt P28705); experiment: Holoreceptor transactivation assay; type: cell-based; conditions: relative to all trans retinoic acid; read-out: Transactivation Assay Efficacy (% of RA activity) RXRγ
# T2 construct: expressed in transfected cells; host or cells: CV1 cells
# T2 sequence (P28705 1-463): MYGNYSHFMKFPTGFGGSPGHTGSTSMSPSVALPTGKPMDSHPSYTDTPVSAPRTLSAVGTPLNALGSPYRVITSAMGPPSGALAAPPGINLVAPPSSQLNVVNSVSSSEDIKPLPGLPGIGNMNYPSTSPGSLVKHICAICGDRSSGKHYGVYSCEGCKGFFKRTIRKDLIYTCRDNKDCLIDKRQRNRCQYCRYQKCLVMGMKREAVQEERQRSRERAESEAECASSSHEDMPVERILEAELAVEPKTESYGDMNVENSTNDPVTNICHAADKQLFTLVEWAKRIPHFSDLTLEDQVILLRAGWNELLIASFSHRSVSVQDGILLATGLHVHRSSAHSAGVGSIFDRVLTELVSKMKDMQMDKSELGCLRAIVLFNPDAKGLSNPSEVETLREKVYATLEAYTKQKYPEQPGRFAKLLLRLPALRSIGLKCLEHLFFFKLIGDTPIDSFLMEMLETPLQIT
# Source text: as §1, §2
# RARγ = biological target: T3, RARγ (Homo sapiens, UniProt P13631); experiment: [3H]-ATRA displacement assay, baculovirus expressed receptor; type: binding; set-up: made in house; host or cells: baculovirus expression system
# T3 sequence (P13631 1-454): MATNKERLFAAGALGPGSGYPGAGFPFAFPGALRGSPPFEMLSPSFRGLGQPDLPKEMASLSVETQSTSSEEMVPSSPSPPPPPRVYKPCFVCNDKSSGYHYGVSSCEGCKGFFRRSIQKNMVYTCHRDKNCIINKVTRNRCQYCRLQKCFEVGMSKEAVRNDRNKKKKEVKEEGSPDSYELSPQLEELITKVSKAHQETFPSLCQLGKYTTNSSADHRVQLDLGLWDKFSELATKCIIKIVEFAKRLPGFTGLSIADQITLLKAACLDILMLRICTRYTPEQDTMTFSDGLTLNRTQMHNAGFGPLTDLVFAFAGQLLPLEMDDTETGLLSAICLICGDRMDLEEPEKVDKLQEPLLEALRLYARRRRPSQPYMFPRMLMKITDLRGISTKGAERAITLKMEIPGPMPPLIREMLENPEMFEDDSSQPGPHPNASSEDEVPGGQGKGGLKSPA
# [1] = test system: patients having retinal detachment resulting from PVR; conditions: 40 mg oral AGN 193109 + 4 mg oral 13-cis retinoic acid twice daily for four weeks
# [2] = Table 12, relative affinity, competition of 3H-ATRA binding, Cheng-Prussof equation
SMILES,Emax (RXRα) [%],Emax (RXRγ) [%],Kd (RARγ; [2]) [nM],RAR-γ-VP-16 constitutive activity (negative hormone activity) (RAR-γ-VP-16),Transactivation Assay Efficacy (% of RA activity) RXRβ (RXRβ),therapeutic outcome versus 40 mg oral 13-cis retinoic acid [1],Kd (RARγ; Table 11) [nM]
"CC1(C)CC=C(c2ccc(C(F)(F)F)cc2)c2cc(C#Cc3ccc(C(=O)O)cc3)ccc21 [Compound 23, 4-[(5,6-Dihydro-5,5-dimethyl-8-(4-trifluoromethylphenyl)-2-naphthalenyl)ethynyl]benzoic acid]",1,4,25,dose dependent repression of RAR-γ-VP-16 constitutive activity,0.00 % of RA activity,–,–
"Cc1ccc(C2=CCC(C)(C)c3ccc(C#Cc4ccc(C(=O)O)cc4)cc32)cc1 [Compound 60, 4-[(5,6-dihydro-5,5-dimethyl-8-(4-methylphenyl)-2-naphthalenyl)ethynyl]benzoic acid]",3,3,6,dose dependent repression of RAR-γ-VP-16 constitutive activity,0.00 % of RA activity,equal to or better than,3
"CC(C)(C)c1ccc(C2=CCC(C)(C)c3ccc(C#Cc4ccc(C(=O)O)cc4)cc32)cc1 [Compound 61, 4-[(5,6-Dihydro-5,5-dimethyl-8-(4-(1,1-dimethylethyl)phenyl)-2-naphthalenyl)ethynyl]benzoic acid]",1,3,–,–,0.00 % of RA activity,–,–
"CC1(C)CC=C(c2ccccc2)c2ccc(C(=O)C=Cc3ccc(C(=O)O)cc3)cc21 [Compound 103, 4-[3-oxo-3-(7,8-dihydro-5-phenyl-8,8-dimethyl-2-naphthalenyl)-1-propenyl]-benzoic acid]",0,2,–,–,0.0 % of RA activity,–,–

# Further lines, with some results ahead:
Emax (RXRα) [%],Emax (RXRγ) [%],Kd (RARγ; [2]) [nM],SMILES,RAR-γ-VP-16 constitutive activity (negative hormone activity) (RAR-γ-VP-16),Transactivation Assay Efficacy (% of RA activity) RXRβ (RXRβ),therapeutic outcome versus 40 mg oral 13-cis retinoic acid [1],Kd (RARγ; Table 11) [nM]
5,3,13,"CC1(C)CC=C(c2ccc(Cl)cc2)c2cc(C#Cc3ccc(C(=O)O)cc3)ccc21 [Compound 25, 4-[(5,6-Dihydro-5,5-dimethyl-8-(4-chlorophenyl)-2-naphthalenyl)ethynyl]benzoic acid]",dose dependent repression of RAR-γ-VP-16 constitutive activity,0.00 % of RA activity,–,–
1,1,–,"Cc1ccc(C2=CCC(C)(C)c3ccc(C(=S)Nc4ccc(C(=O)O)c(F)c4)cc32)cc1 [Compound 63, 2-fluoro-4-[[(5,6-dihydro-5,5-dimethyl-8-(4-methylphenyl)-2-naphthalenyl)thiocarbonyl]amino]-benzoic acid]",–,0.00 % of RA activity,–,–
1,3,–,"Cc1ccc(C2=CCC(C)(C)c3cc(C(=O)C=Cc4ccc(C(=O)O)cc4)ccc32)cc1 [Compound 101, 4-[3-oxo-3-(7,8-dihydro-5-(4-methylphenyl)-8,8-dimethyl-2-naphthalenyl)-1-propenyl]-benzoic acid]",–,0.00 % of RA activity,–,–
